Test results published in ChEMBL document CHEMBL1159288, “Anti-AIDS agents, 21. Triterpenoid saponins as anti-HIV principles from fruits of Gleditsia japonica and Gymnocladus chinensis, and a structure-activity correlation” (J Nat Prod, 1995).

What was measured:
[1] = system: Human immunodeficiency virus 1; experiment: Antiviral activity against HIV1 3B in human H9 cells assessed as inhibition of viral replication after 3 days by p24 antigen capture assay; format: functional, organism-based; conditions: Human immunodeficiency virus 1, 3B, H9, 72 h
H9 = experiment: Cytotoxicity against human H9 cells after 3 days; format: cell-based; conditions: H9, 72 h
[2] = Therapeutic index, ratio of IC50 for human H9 cells to EC50 for HIV1 3B; format: cell-based; conditions: H9 cells (cytotoxicity) and HIV-1 3B (antiviral), read-out: TI

SMILES	EC50 [1]	IC50 (H9)	selectivity ratio [2]
CC1(C)CC[C@]2(C(=O)O)[C@H](O)C[C@]3(C)C(=CC[C@@H]4[C@@]5(C)CC[C@H](O[C@@H]6O[C@H](CO[C@@H]7OC[C@H](O)[C@H](O)[C@H]7O)[C@@H](O)[C@H](O)[C@H]6O)C(C)(C)[C@@H]5CC[C@]43C)[C@H]2C1	13 µM	50 µM	3.8
C[C@@H]1O[C@@H](OC[C@H]2O[C@@H](OC(=O)[C@]34CCC(C)(C)C[C@@H]3C3=CC[C@@H]5[C@@]6(C)CC[C@H](O[C@@H]7O[C@H](CO[C@@H]8OC[C@H](O)[C@H](O)[C@H]8O[C@@H]8OC[C@@H](O)[C@H](O)[C@H]8O)[C@@H](O)[C@H](O)[C@H]7O)C(C)(C)[C@@H]6CC[C@@]5(C)[C@]3(C)C[C@H]4O)[C@H](O[C@@H]3O[C@@H](C)[C@H](O[C@@H]4OC[C@@H](O)[C@H](O[C@@H]5OC[C@@H](O)[C@H](O)[C@H]5O)[C@H]4O)[C@@H](O)[C@H]3O)[C@@H](O)[C@@H]2O)[C@H](O)[C@H](O)[C@H]1O	> 100 µM	43 µM	–
COC(=O)[C@]12CCC(C)(C)C[C@@H]1C1=CC[C@@H]3[C@@]4(C)CC[C@H](O)C(C)(C)[C@@H]4CC[C@@]3(C)[C@]1(C)C[C@H]2O [METHYL ECHINOCYSTATE]	3.1 µM	4.9 µM	1.6
CC1(C)CC[C@]2(C(=O)O)[C@H](O)C[C@]3(C)C(=CC[C@@H]4[C@@]5(C)CC[C@H](O)C(C)(C)[C@@H]5CC[C@]43C)[C@@H]2C1 [ECHINOCYSTIC ACID]	–	–	1.8
CCCC(=O)O[C@H]1CC[C@]2(C)[C@H]3CC=C4[C@H]5CC(C)(C)CC[C@]5(C(=O)OC)[C@H](O)C[C@@]4(C)[C@]3(C)CC[C@H]2C1(C)C	27 µM	27 µM	1
CC1(C)CC[C@]2(C(=O)O)[C@H](O)C[C@]3(C)C(=CC[C@@H]4[C@@]5(C)CC[C@H](O[C@@H]6O[C@H](CO[C@@H]7OC[C@H](O)[C@H](O)[C@H]7O[C@@H]7OC[C@@H](O)[C@H](O)[C@H]7O)[C@@H](O)[C@H](O)[C@H]6O)C(C)(C)[C@@H]5CC[C@]43C)[C@H]2C1	> 100 µM	37 µM	–
CCCC(=O)O[C@H]1CC[C@]2(C)[C@H]3CC=C4[C@H]5CC(C)(C)CC[C@]5(C(=O)OC)[C@H](OC(=O)CCC)C[C@@]4(C)[C@]3(C)CC[C@H]2C1(C)C	15 µM	> 160 µM	> 11
C=C[C@@](C)(O)CC/C=C(\C)C(=O)O[C@H]1[C@H](OC[C@H]2O[C@@H](OC(=O)[C@]34CCC(C)(C)C[C@@H]3C3=CC[C@@H]5[C@@]6(C)CC[C@H](O[C@@H]7O[C@H](CO[C@@H]8OC[C@H](O)[C@H](O)[C@H]8O[C@@H]8OC[C@@H](O)[C@H](O)[C@H]8O)[C@@H](O)[C@H](O)[C@H]7O)C(C)(C)[C@@H]6CC[C@@]5(C)[C@]3(C)C[C@H]4O)[C@H](O[C@@H]3O[C@@H](C)[C@H](O[C@@H]4OC[C@@H](O)[C@H](O[C@@H]5OC[C@@H](O)[C@H](O)[C@H]5O)[C@H]4O)[C@@H](O)[C@H]3O)[C@@H](O)[C@@H]2O)O[C@@H](C)[C@H](O)[C@H]1OC(=O)/C(=C/CC[C@](C)(O)C=C)CO [GLEDITSIA SAPONIN C]	1.1 µM	9.8 µM	8.9
COC(=O)[C@]12CCC(C)(C)C[C@@H]1C1=CC[C@@H]3[C@@]4(C)CC[C@H](OC(C)=O)C(C)(C)[C@@H]4CC[C@@]3(C)[C@]1(C)C[C@H]2O	5.1 µM	7.6 µM	1.5
CC(=O)O[C@H]1CC[C@]2(C)[C@H]3CC=C4[C@H]5CC(C)(C)CC[C@]5(C(=O)O)[C@H](OC(C)=O)C[C@@]4(C)[C@]3(C)CC[C@H]2C1(C)C	2.3 µM	13 µM	5.4
CC1(C)CC[C@]2(C(=O)O)[C@H](O)C[C@]3(C)C(=CC[C@@H]4[C@@]5(C)CC[C@H](O)C(C)(C)[C@@H]5CC[C@]43C)[C@H]2C1 [ECHINOCYSTIC ACID]	42 µM	74 µM	–
COC(=O)[C@]12CCC(C)(C)C[C@@H]1C1=CC[C@@H]3[C@@]4(C)CC[C@H](O[C@@H]5O[C@H](CO[C@@H]6OC[C@H](O)[C@H](O)[C@H]6O[C@@H]6OC[C@@H](O)[C@H](O)[C@H]6O)[C@@H](O)[C@H](O)[C@H]5O)C(C)(C)[C@@H]4CC[C@@]3(C)[C@]1(C)C[C@H]2O	9.9 µM	22 µM	2.2
CCCCC(=O)O[C@H]1CC[C@]2(C)[C@H]3CC=C4[C@H]5CC(C)(C)CC[C@]5(C(=O)OC)[C@H](O)C[C@@]4(C)[C@]3(C)CC[C@H]2C1(C)C	30 µM	180 µM	5.9
CCCCC(=O)O[C@H]1CC[C@]2(C)[C@H]3CC=C4[C@H]5CC(C)(C)CC[C@]5(C(=O)OC)[C@H](OC(=O)CCCC)C[C@@]4(C)[C@]3(C)CC[C@H]2C1(C)C	31 µM	54 µM	1.8
CC1(C)C[C@@H]2C3=CC[C@@H]4[C@@]5(C)C[C@H](O)[C@H](O)[C@@](C)(CO)[C@@H]5CC[C@@]4(C)[C@]3(C)C[C@H](O)[C@@]23C[C@@H]1OC3=O	8 µM	40 µM	5
C=C[C@](C)(CC/C=C(\C)C(=O)O[C@H]1C[C@@]2(C(=O)O[C@@H]3O[C@H](CO[C@@H]4O[C@@H](C)[C@H](O)[C@@H](O)[C@H]4O)[C@@H](O)[C@H](O)[C@H]3O[C@@H]3O[C@@H](C)[C@H](O[C@@H]4OC[C@@H](O)[C@H](O[C@@H]5OC[C@@H](O)[C@H](O)[C@H]5O)[C@H]4O)[C@@H](O)[C@H]3O)[C@H](CC1(C)C)C1=CC[C@@H]3[C@@]4(C)C[C@H](O)[C@H](O[C@@H]5O[C@H](CO[C@@H]6OC[C@H](O)[C@H](O)[C@H]6O[C@@H]6OC[C@@H](O)[C@H](O)[C@H]6O)[C@@H](O)[C@H](O)[C@H]5O)[C@@](C)(CO)[C@@H]4CC[C@@]3(C)[C@]1(C)C[C@@H]2O)O[C@@H]1OC[C@H](OC(=O)CC(C)C)[C@H](O[C@@H]2O[C@H](CO)[C@@H](O)[C@H](O)[C@H]2O)[C@H]1O [GYMNOCLADUS SAPONIN G]	2.7 µM	14 µM	5.2
CC1(C)C[C@@H]2C3=CC[C@@H]4[C@@]5(C)C[C@H](O)[C@H](O[C@@H]6O[C@H](CO[C@@H]7OC[C@H](O)[C@H](O)[C@H]7O[C@@H]7OC[C@@H](O)[C@H](O)[C@H]7O)[C@@H](O)[C@H](O)[C@H]6O)[C@@](C)(CO)[C@@H]5CC[C@@]4(C)[C@]3(C)C[C@H](O)[C@@]23C[C@@H]1OC3=O	100 µM	> 100 µM	> 1
